According to patent publication US9029378B2, “Substituted bicyclic aromatic carboxamide and urea compounds as vanilloid receptor ligands” (Gruenenthal GmbH, priority 2011, dated 2015):

What follows are compounds tested against T1, vanilloid receptor 1 (VR1/TRPV1 receptor) (Homo sapiens, UniProt Q8NER1) (assay: Functional testing on the vanilloid receptor 1 (FLIPR Ca2+ influx assay, capsaicin)). Conditions: Cap=capsaicin (100 nM); Ki from IC50 by Cheng-Prusoff equation; read-out: (f) Ki (human being) [nM] Cap.
T1 construct: expressed in transfected cells; host or cells: CHO K1
T1 sequence (Q8NER1 whole entry): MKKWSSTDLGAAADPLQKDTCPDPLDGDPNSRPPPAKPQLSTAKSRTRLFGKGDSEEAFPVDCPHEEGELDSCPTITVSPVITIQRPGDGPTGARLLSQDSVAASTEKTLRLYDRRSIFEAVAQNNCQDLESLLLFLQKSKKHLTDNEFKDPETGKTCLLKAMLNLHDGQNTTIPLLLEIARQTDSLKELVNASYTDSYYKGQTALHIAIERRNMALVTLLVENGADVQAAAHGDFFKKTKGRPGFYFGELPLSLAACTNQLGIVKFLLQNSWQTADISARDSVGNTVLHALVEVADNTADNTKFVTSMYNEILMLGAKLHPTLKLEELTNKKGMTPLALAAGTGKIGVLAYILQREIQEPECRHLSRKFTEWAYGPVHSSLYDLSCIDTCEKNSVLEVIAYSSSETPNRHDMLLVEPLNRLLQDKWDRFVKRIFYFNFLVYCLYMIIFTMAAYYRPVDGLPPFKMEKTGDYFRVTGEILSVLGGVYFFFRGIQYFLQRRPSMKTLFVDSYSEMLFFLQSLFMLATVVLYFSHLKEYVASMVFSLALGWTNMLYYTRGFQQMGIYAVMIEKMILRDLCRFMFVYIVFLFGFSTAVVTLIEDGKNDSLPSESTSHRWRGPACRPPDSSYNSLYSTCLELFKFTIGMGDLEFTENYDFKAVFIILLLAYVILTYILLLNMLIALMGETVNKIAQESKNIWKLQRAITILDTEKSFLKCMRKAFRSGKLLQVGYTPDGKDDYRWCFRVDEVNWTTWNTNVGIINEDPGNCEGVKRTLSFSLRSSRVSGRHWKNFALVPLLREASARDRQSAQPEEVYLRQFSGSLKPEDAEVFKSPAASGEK
Format: cell-based, human being
Summary of the method: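 Ca2+ influx was read with Fluo-4 on a FLIPR against 100 nM capsaicin, in CHO K1 cells transfected with human VR1. The detailed protocol describes rat dorsal root ganglion neurons cultured 2–3 days on laminin/poly-D-lysine plates in medium with 25 ng/mL NGF.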

Going from `O=C(NCc1ccc(C(F)(F)F)nc1SC1CCCCC1)Nc1cccc2ccncc12` [Example 85, 1-((2-(Cyclohexylthio)-6-(trifluoromethyl)pyridin-3-yl)methyl)-3-(isoquinolin-8-yl)urea] to `Cc1nccc2cccc(NC(=O)NCc3ccc(C(F)(F)F)nc3N3CCC(C)CC3)c12` [Example 86, 1-(1-Methylisoquinolin-8-yl)-3-((2-(4-methylpiperidin-1-yl)-6-(trifluoromethyl)pyridin-3-yl)methyl)urea], the Ki rises from 1 nM to 52 nM (52-fold). The first binds more tightly here.

First: Cc1cc2cccc(NC(=O)NCc3ccc(C(F)(F)F)nc3N3CCC(C)CC3)c2cn1 [Example 87, 1-(3-Methylisoquinolin-8-yl)-3-((2-(4-methylpiperidin-1-yl)-6-(trifluoromethyl)pyridin-3-yl)methyl)urea]
Second: COc1ccc(NC(=O)NCc2ccc(C(F)(F)F)nc2N2CCC(C)CC2)c2cnccc12 [Example 88, 1-(5-Methoxyisoquinolin-8-yl)-3-((2-(4-methylpiperidin-1-yl)-6-(trifluoromethyl)pyridin-3-yl)methyl)urea]
The Ki of the first is 4.1-fold lower: 15 nM for the first, 62 nM for the second.

Going from `CC1CCN(c2nc(C(F)(F)F)ccc2CNC(=O)Nc2cccc3c(O)ncnc23)CC1` [Example 89, 1-(4-Hydroxyquinazolin-8-yl)-3-((2-(4-methylpiperidin-1-yl)-6-(trifluoromethyl)pyridin-3-yl)methyl)urea] to `CC1CCN(c2nc(C(F)(F)F)ccc2CNC(=O)Nc2ccc3cncnc3c2)CC1` [Example 91, 1-((2-(4-Methylpiperidin-1-yl)-6-(trifluoromethyl)pyridin-3-yl)methyl)-3-(quinazolin-7-yl)urea], the Ki falls from 17 nM to 8 nM (2.1-fold).

“N-(2-(4-Methylpiperidin-1-yl)-4-(trifluoromethyl)benzyl)-2-(quinolin-3-yl)propanamide [Example 16]” showed a Ki of 10 nM.
